From PMC7078208, “Interaction of SHP-2 SH2 domains with PD-1 ITSM induces PD-1 dimerization and SHP-2 activation” (Communications Biology, 2020)

What was measured:
Assay type in all cases: biochemical
SHP-2-WT = experiment: SHP-2 phosphatase activity, DiFMUP substrate
SHP-2-R32A = experiment: SHP-2 phosphatase activity, DiFMUP substrate, R32A mutant; conditions: 4-Ahx spacer peptide; Fig. 5c
Protocol: (§1) Catalytic activity of SHP-2 was monitored by a fluorescent assay using the substrate 6,8-difluoro-4-[…] (DiFMUP) as previously with slight modifications[38],[68]. Specifically, the phosphatase reactions were performed in 50 mM HEPES, pH 7.4, 100 mM NaCl and 10 mM DTT in 96-well black polystyrene plate, flat bottom, non-binding surface, using a final reaction volume of 100 µl. In all, 1.6 µg/ml of SHP-2-WT or mutant proteins were incubated with 20 µM DiFMUP with the indicated concentrations of phosphotyrosyl peptides or without peptide at 37 °C. For some experiments with highly SHP-2-activating peptides we used 0.5 µg/ml of SHP-2-WT so that activity measurements could fall within range. Fluorescence signal was monitored every 1 min for 3 min by a SpectraMax5 microplate reader and reaction rate was calculated by the change of fluorescence signal with time using excitation and emission wavelengths of 340 nm and 450 nm, respectively. Under these conditions, product formation was linear with respect to the time of incubation. Results were normalized against the basal activity determined for each condition in the absence of peptide and activity was calculated.

SHP-2-R138A = experiment: SHP-2 phosphatase activity, DiFMUP substrate, R138A mutant; conditions: Fig. 5c
Protocol: as §1

fold lower phosphopeptide concentration for robust increase in SHP-2 activity than pITIM-pITSM (SHP-2-WT; DiFMUP substrate, Fig. 5a): 1000 fold
potency in inducing SHP-2 activation compared with bpIRS (SHP-2-WT; Supplementary Fig. 12, peptides at 20 nM): approximately three times more potent
SHP-2 activity caused by peptide (SHP-2-R32A): abrogated
SHP-2 activity caused by peptide (SHP-2-R138A; 4-Ahx spacer peptide): abrogated
peptide concentration at which a small induction of SHP-2 activity was observed (SHP-2-R138A): above 1 µM
Substance: TE(pY)ATIVFP-Ahx4-QTE(pY)ATIVFPS [bpITSM, bisphosphoryl ITSM-ITSM peptide with 4-Ahx spacer]
